The values that follow come from patent publication US6521623B1, “N,N'-disubstituted benzimidazolone derivatives with affinity at the serotonin and dopamine receptors” (Boehringer Ingelheim Pharma KG, priority 2000, dated 2003).

For one test, the target named is T1, 5-HT1A (Homo sapiens, UniProt P08908).
T1 sequence (P08908 1-422): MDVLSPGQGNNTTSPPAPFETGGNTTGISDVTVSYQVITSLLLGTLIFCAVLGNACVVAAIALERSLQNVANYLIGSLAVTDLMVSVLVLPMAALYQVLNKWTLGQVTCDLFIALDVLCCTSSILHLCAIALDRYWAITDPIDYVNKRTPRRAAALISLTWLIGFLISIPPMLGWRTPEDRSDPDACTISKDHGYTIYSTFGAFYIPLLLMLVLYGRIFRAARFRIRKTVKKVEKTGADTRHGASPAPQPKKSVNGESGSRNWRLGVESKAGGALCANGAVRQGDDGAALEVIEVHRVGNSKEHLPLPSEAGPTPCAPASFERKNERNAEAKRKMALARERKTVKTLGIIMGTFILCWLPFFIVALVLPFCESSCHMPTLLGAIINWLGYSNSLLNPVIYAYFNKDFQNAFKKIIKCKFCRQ
As to the kind of experiment: 5HT1A Radioligand Receptor Binding Assay ([3H]-8-OH-DPAT, CHO cell membranes). Set-up: expressed in transfected cells; host or cells: CHO cells. The following applies: for 5-HT1A Receptor Binding Assay % inhibition (10^−7 M): compound 10^−7 M, singlicate, [3H]-8-OH-DPAT 0.6-0.7 nM. The procedure:
5HT1A Radioligand Receptor Binding Assay
Membranes from CHO cells, expressing 5-HT1A human receptors were suspended in incubation buffer.
Binding assays were performed in MultiProbe 204 pipetting system (Packard), according to a predetermined mapping, consistent with the software Screen. The compounds were tested in singlicate at one concentration (10^−7 M) in a total volume of 1000 μl. 980 μl of diluted membranes, 10 μl DMSO or unlabelled ligand and 10 μl of [^3H]-8-OH-DPAT (0.6-0.7 nM) were incubated for 60 minutes at 27° C. The reaction was stopped by rapid filtration through Tomtec Cell Harvester (48 wells) using Filtermat B (presoaked in 0.1% PEI) filters. Filters were washed with ice-cold 50 mM Tris-HCl (pH 7.4) buffer (9×700 μl), dried, covered with MeltiLex B/HS scintillator sheets (Wallac) and heated at 80° C. to 90° C. for about 10 minutes, transferred into plastic sample bags (Wallac), sealed, and put into 1024 Beta Plate scintillation counter (Wallac). Non-specific binding was determined in the presence of 5-HT (10^−5 M).
The specific radioligand binding to the receptor was defined by the difference between total binding and non-specific binding, determined in the presence of an excess of unlabelled ligand. Results were expressed as percentage of control specific binding obtained in the presence of the compounds. The affinity values (IC50) for the compounds were obtained by a nonlinear least squares regression analysis on the basis of a one binding site model.

For a further test, the target named is T2, D4 human receptors (Homo sapiens, UniProt P21917).
T2 construct: expressed in transfected cells; host or cells: CHO cells
T2 sequence (P21917 1-419): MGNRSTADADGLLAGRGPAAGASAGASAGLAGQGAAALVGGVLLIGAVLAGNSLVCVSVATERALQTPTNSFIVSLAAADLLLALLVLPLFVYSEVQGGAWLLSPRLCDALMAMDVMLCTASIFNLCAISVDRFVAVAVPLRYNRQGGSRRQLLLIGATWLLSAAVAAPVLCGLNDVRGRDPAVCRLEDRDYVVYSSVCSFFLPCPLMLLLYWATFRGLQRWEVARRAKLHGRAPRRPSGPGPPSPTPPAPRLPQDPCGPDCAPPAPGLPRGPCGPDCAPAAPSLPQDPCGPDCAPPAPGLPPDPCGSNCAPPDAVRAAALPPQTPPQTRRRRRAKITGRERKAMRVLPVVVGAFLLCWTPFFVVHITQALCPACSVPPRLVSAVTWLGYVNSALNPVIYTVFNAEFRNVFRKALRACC
As to the kind of experiment: D4 Radioligand Receptor Binding Assay ([3H] YM-09151-2, CHO cell membranes). The following applies: compound 10^−7 M, singlicate, [3H] YM-09151-2 0.15-0.25 nM. The procedure:
D4 Radioligand Receptor Binding Assay
Membranes from CHO cells expressing D4 human receptors, were suspended in incubation buffer.
Binding assays were performed in MultiProbe 204 pipetting system (Packard), according to a predetermined mapping, consistent with the software Screen. The compounds were tested in singlicate at one concentration (10^−7 M) in a total volume of 1000 μl (980 μl of diluted membranes, 10 μl DMSO or unlabelled ligand and 10 μl of [^3H] YM-09151-2 (0.15-0.25 nM). After incubation for 120 minutes at 27° C., the reaction was stopped by rapid filtration through Tomtec Cell Harvester (48 wells) using Filtermat B (presoaked in 0.1% PEI) filters. Filters were washed with ice-cold 50 mM Tris-HCl (pH 7.4) buffer (9×700 μl), dried, covered with MeltiLex B/HS (Wallac) scintillator sheets and heated in oven at 80° C. to 90° C. for about 10 minutes, transferred into plastic sample bags (Wallac), sealed, and put into 1024 Beta Plate scintillation counter (Wallac). Non-specific binding was determined in the presence of clozapine dissolved in DMSO to a final concentration of 10^−5 M.
The specific radioligand binding to the receptor was defined by the difference between total binding and non-specific binding, determined in the presence of an excess of unlabelled ligand. Results were expressed as percentage of control specific binding obtained in the presence of the compounds.

Setting [1] is: [3H]-8-OH-DPAT, CHO membranes, human 5-HT1A, read-out: 5-HT1A Receptor Binding IC50.

Where two headings read alike, the source gives them in different places.

In the case of `COCCn1c(=O)n(CCCCN2CCN(c3ccccc3)CC2)c2ccccc21` [Compound 1], the “5-HT1A Receptor Binding Assay % inhibition (10^−7 M)” value at 5-HT1A (CHO membranes, human 5-HT1A) is given as 56%. Besides, at D4 human receptors, the “D4 Receptor Binding Assay % inhibition (10^−7 M)” value is recorded as 38%.
The like results for `COCCn1c(=O)n(CCCCN2CCc3c([nH]c4ccccc34)C2)c2ccccc21` [Compound 7] were, in that order, 77% and 91%.
The like results for `COCCn1c(=O)n(CCCCN2CC=C(c3ccccc3)CC2)c2ccccc21` [Compound 10] were, in that order, 60% and 47%.
For `COCCn1c(=O)n(CCCCN2CCN(c3ccc(Cl)c(Cl)c3)CC2)c2ccccc21` [Compound 11], on 5-HT1A (CHO membranes, human 5-HT1A), the “5-HT1A Receptor Binding Assay % inhibition (10^−7 M)” value was 48%. Further, the “D4 Receptor Binding Assay % inhibition (10^−7 M)” value at D4 human receptors came out at 90%.
On the same counts, the results for `COCCn1c(=O)n(CCCCN2CCN(c3ccccc3OC)CC2)c2ccccc21` [Compound 19] are 69% and 32%.
The like results for `O=c1n(CCCCN2CCN(c3ccccc3)CC2)c2ccccc2n1CCN1CCCCC1` [Compound 20] were, in that order, 50% and 60%.
The like results for `O=c1n(CCCCN2CCN(c3ccccn3)CC2)c2ccccc2n1CCN1CCCCC1` [Compound 23] were, in that order, 73% and 48%.
Consider `O=c1n(CCCCN2CCN(c3cccc(Cl)c3)CC2)c2ccccc2n1CCN1CCCCC1` [Compound 24], for which, at 5-HT1A (CHO membranes, human 5-HT1A), the “5-HT1A Receptor Binding Assay % inhibition (10^−7 M)” value came to 90%. Further, the “D4 Receptor Binding Assay % inhibition (10^−7 M)” value on D4 human receptors stood at 67%.
For `O=c1n(CCCCN2CCN(c3ncccn3)CC2)c2ccccc2n1CCN1CCCCC1` [Compound 25], the “5-HT1A Receptor Binding Assay % inhibition (10^−7 M)” value at 5-HT1A (CHO membranes, human 5-HT1A) is 48%. In addition, the “D4 Receptor Binding Assay % inhibition (10^−7 M)” value at D4 human receptors is 44%.
On to `O=c1n(CCCCN2CCc3c([nH]c4ccccc34)C2)c2ccccc2n1CCN1CCCCC1` [Compound 26], for which, on 5-HT1A (CHO membranes, human 5-HT1A), the “5-HT1A Receptor Binding Assay % inhibition (10^−7 M)” value came out at 70%. In addition, the “D4 Receptor Binding Assay % inhibition (10^−7 M)” value on D4 human receptors is given as 94%.
On the same counts, the results for `O=c1n(CCCCN2CCN(c3cccc(C(F)(F)F)c3)CC2)c2ccccc2n1CCN1CCCCC1` [Compound 28] are 89% and 35%.
The like results for `O=c1n(CCCCN2CC=C(c3ccccc3)CC2)c2ccccc2n1CCN1CCCCC1` [Compound 29] were, in that order, 57% and 83%.
The like results for `O=c1n(CCCCN2CCN(c3ccc(Cl)c(Cl)c3)CC2)c2ccccc2n1CCN1CCCCC1` [Compound 30] were, in that order, 44% and 90%.
In the case of `COc1ccccc1N1CCN(CCCCn2c(=O)n(CCN3CCCCC3)c3ccccc32)CC1` [Compound 38], the “5-HT1A Receptor Binding Assay % inhibition (10^−7 M)” value on 5-HT1A (CHO membranes, human 5-HT1A) amounted to 92%. Further, on D4 human receptors, the “D4 Receptor Binding Assay % inhibition (10^−7 M)” value is 78%.
On the same counts, the results for `O=c1n(CCCCN2CCN(c3ccccc3)CC2)c2ccccc2n1CCN1CCOCC1` [Compound 39] are 36% and 42%.
On the same counts, the results for `O=c1n(CCCCN2CCN(c3cccc(Cl)c3)CC2)c2ccccc2n1CCN1CCOCC1` [Compound 43] are 104% and 55%.
For `COCCn1c(=O)n(C/C=C/CN2CCN(c3ccccn3)CC2)c2ccccc21` [Compound 296], the IC50 – broadly, the point on the concentration scale where inhibition reaches its midpoint – on 5-HT1A (setting [1]) was 8.2 nM.
On the same count and under the same terms, the figure for `O=c1n(C/C=C\CN2CCN(c3ccccc3)CC2)c2ccccc2n1CCN1CCCCC1` [Compound 310] is 15 nM; for `O=c1n(C/C=C\CN2CCN(c3cccc(C(F)(F)F)c3)CC2)c2ccccc2n1CCN1CCCCC1` [Compound 318] it is 3.1 nM; for `O=c1n(C/C=C/CN2CCN(c3ccccn3)CC2)c2ccccc2n1CCN1CCCCC1` [Compound 330] it is 7.9 nM.
Same read-out and setting: for `O=c1n(C/C=C/CN2CCc3c([nH]c4ccccc34)C2)c2ccccc2n1CCN1CCCCC1` [Compound 333] the value was 16 nM.
For the compound `O=c1n(C/C=C/CN2CCN(c3cccc(C(F)(F)F)c3)CC2)c2ccccc2n1CCN1CCCCC1` [Compound 335], at 5-HT1A (setting [1]), the IC50 turned out to be 3.5 nM.
On the same count and under the same terms, for `O=c1n(C/C=C/CN2CCN(c3ccccn3)CC2)c2ccccc2n1CCN1CCOCC1` [Compound 347] the value was 13 nM; for `O=c1n(C/C=C/CN2CCN(c3cccc(C(F)(F)F)c3)CC2)c2ccccc2n1CCN1CCOCC1` [Compound 352], 4.1 nM.
The same measure, in the same setting: the figure for `O=c1n(C/C=C\CN2CCN(c3cccc(C(F)(F)F)c3)CC2)c2ccccc2n1CCO` [Compound 369] is 3.5 nM.
Regarding `O=c1n(C/C=C\CN2CC=C(c3ccccc3)CC2)c2ccccc2n1CCO` [Compound 370], on 5-HT1A, the concentration for half-maximal inhibition (IC50) came to 4.4 nM.
With `O=c1n(C/C=C/CN2CCN(c3ccccn3)CC2)c2ccccc2n1CCO` [Compound 381], at 5-HT1A (setting [1]), the half-maximal inhibitory concentration (IC50) turned out to be 44 nM.
With `CCNC(=O)OCCn1c(=O)n(C/C=C/CN2CCN(c3ccccn3)CC2)c2ccccc21` [Compound 415], the IC50 at 5-HT1A (setting [1]) was 14 nM.
Regarding `CCNC(=O)OCCn1c(=O)n(C/C=C/CN2CCN(c3cccc(Cl)c3)CC2)c2ccccc21` [Compound 416], the concentration for half-maximal inhibition (IC50) at 5-HT1A (setting [1]) was 7.9 nM.
Same read-out and setting: for `CC(=O)NCCn1c(=O)n(CCN2CCN(c3cccc(C)c3C)CC2)c2ccccc21` [Compound 446] the value was 7.3 nM; for `CC(=O)NCCn1c(=O)n(C/C=C\CN2CCN(c3cccc(C(F)(F)F)c3)CC2)c2ccccc21` [Compound 459], 8.8 nM; for `CC(=O)NCCn1c(=O)n(C/C=C\CN2CCN(c3cccc(C)c3C)CC2)c2ccccc21` [Compound 468], 3.1 nM.
Still for that read-out and setting: for `CC(=O)NCCn1c(=O)n(C/C=C\CN2CCN(c3ccccc3Cl)CC2)c2ccccc21` [Compound 472] the value was 3.1 nM.
Same read-out and setting: for `CS(=O)(=O)NCCn1c(=O)n(C/C=C\CN2CCN(c3cccc(C(F)(F)F)c3)CC2)c2ccccc21` [Compound 503] the value was 2.8 nM.
In turn, `CS(=O)(=O)NCCn1c(=O)n(C/C=C\CN2CC=C(c3ccccc3)CC2)c2ccccc21` [Compound 504] displayed a half-inhibitory concentration (IC50) at 5-HT1A of 3.6 nM.
Turning to `Cc1cccc(N2CCN(C/C=C\Cn3c(=O)n(CCNS(C)(=O)=O)c4ccccc43)CC2)c1C` [Compound 512], the IC50 at 5-HT1A (setting [1]) was determined as 0.59 nM.
The same measure, in the same setting: for `CS(=O)(=O)NCCn1c(=O)n(C/C=C/CN2CCN(c3ccccn3)CC2)c2ccccc21` [Compound 520] the value was 8.1 nM; for `Cc1cccc(N2CCN(C/C=C/Cn3c(=O)n(CCNS(C)(=O)=O)c4ccccc43)CC2)c1` [Compound 536], 9.5 nM.
